Source: ChEMBL document CHEMBL2062412, “Structure and bioassay of triterpenoids and steroids isolated from Sinocalamus affinis” (J Nat Prod, 2012)

Target: T1, Tyrosine-protein phosphatase non-receptor type 1 (Homo sapiens, UniProt P18031)
T1 sequence (P18031 whole entry): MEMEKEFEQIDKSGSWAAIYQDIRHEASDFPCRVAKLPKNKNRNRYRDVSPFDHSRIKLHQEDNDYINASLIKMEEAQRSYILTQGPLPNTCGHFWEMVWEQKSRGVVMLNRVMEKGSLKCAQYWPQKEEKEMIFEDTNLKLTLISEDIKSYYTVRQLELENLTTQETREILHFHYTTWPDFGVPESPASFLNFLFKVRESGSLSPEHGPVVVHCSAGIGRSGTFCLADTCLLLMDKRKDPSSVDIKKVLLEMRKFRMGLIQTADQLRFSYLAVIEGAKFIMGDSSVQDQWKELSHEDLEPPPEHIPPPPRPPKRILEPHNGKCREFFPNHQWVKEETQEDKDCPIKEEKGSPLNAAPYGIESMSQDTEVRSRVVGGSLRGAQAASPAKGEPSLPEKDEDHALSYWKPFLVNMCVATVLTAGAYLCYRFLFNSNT
Assay: Inhibition of GST-tagged human recombinant PTP1B using para-nitrophenyl phosphate as substrate by spectrophotometric analysis

**Q.** How did the IC50 turn out when `CC(C)[C@@H]1C[C@@H](O)[C@H]2[C@@]1(CO)CC[C@@]1(C)[C@H]3C(=CC[C@]21C)C1=C(C[C@@H]3O)C(C)(C)[C@@H](O)CC1` was run?
**A.** 6.8 µM

**Q.** With `CC(C)[C@@H]1[C@H](O)[C@@H](O)[C@H]2[C@@]1(CO)CC[C@@]1(C)[C@H]3C(=CC[C@]21C)C1=C(C[C@@H]3O)C(C)(C)[C@@H](O)CC1` as the compound, how does the IC50 read?
**A.** 6.8 µM

**Q.** For `CC(C)[C@@H]1CC(=O)[C@H]2[C@@]1(CO)CC[C@@]1(C)[C@H]3C(=CC[C@]21C)C1=C(C[C@@H]3O)C(C)(C)[C@@H](O)CC1`, which IC50 is on record?
**A.** 6.8 µM

**Q.** How did the IC50 turn out when `CC(C)[C@@H]1C[C@@H](O)[C@H]2[C@@]1(CO)CC[C@@]1(C)[C@H]3C(=CC[C@]21C)C1=C(C[C@@H]3O)[C@](C)(CO)[C@@H](O)CC1` was run?
**A.** 6.8 µM

**Q.** `CC(C)[C@@H]1C[C@@H](O)[C@H]2[C@@]1(CO)CC[C@@]1(C)[C@H]3C(=CC[C@]21C)C1=CC[C@H](O)C(C)(C)[C@H]1C[C@@H]3O` was tested. Which IC50 did it give?
**A.** 6.8 µM
